These results are taken from ChEMBL document CHEMBL3102695, “New melatonin (MT1/MT2) ligands: design and synthesis of (8,9-dihydro-7H-furo[3,2-f]chromen-1-yl) derivatives” (Bioorg Med Chem, 2014).

Active and inactive are the calls of the source. The calls are words filed in the database; no cut-off is given here.

In test [1] the test system is Rattus norvegicus. Kind of test: Decrease of anticipation of social defeat in rat assessed as reduction of duration of immobility and vocalization at 40 mg/kg, ip. Format: functional, organism-based. On the set-up: dose 40 mg/kg.
For test [2], the system named is Mus musculus. Kind of test: Anxiolytic activity in C3H/he mouse assessed as increase in number of transitions at 10 to 40 mg/kg, po by light/dark box test. Format: functional, organism-based.
The test system of test [3] is Mus musculus. Kind of test: Anxiolytic activity in C3H/he mouse assessed as increase in time spent in light box at 10 to 40 mg/kg, po by light/dark box test. The class given is functional, organism-based.
Test [4] relates to Mus musculus. Kind of test: Increase of neophobia in C3H/he mouse assessed as time spent in unfamiliar compartment at 1 to 25 mg/kg, po. Format: functional, organism-based.
Test [5] has as its system Mus musculus. Kind of test: Increase of resynchronization of activity rhythm in C3H/he mouse at 20 mg/kg, ip. The class given is functional. Particulars: route intraperitoneal.
Test [6] in a line: Intrinsic activity at human melatonin MT2 receptor expressed in CHO cells assessed as [35S]GTPgammaS binding after 1 hr relative to melatonin. The class given is functional. A general note: GTPγS is a poorly hydrolysed GTP analogue; its binding reports G protein activation.
Test [7] can be described thus: Intrinsic activity at human melatonin MT2 receptor expressed in CHO cells assessed as [35S]GTPgammaS binding after 1 hr. The class given is functional, cell-based.
A short description of test [8]: Intrinsic activity at human melatonin MT1 receptor expressed in CHO cells assessed as [35S]GTPgammaS binding after 1 hr relative to melatonin. Format: functional.
A short description of test [9]: Intrinsic activity at human melatonin MT1 receptor expressed in CHO cells assessed as [35S]GTPgammaS binding after 1 hr. Format: functional, cell-based.
Test [10] in a line: Displacement of 2-[I]iodomelatonin from human melatonin MT1 receptor after 120 mins.
Test [11] in a line: Displacement of 2-[I]iodomelatonin from human melatonin MT2 receptor after 120 mins.
Test [12] concerns Mus musculus. The experiment in a line: Anxiolytic activity in C3H/he mouse assessed as increase in number of transitions at 20 to 40 mg/kg, po by light/dark box test. The class given is functional, organism-based.
Test [13] has as its system Mus musculus. Kind of test: Anxiolytic activity in C3H/he mouse assessed as increase in time spent in light box at 20 to 40 mg/kg, po by light/dark box test. The class given is functional, organism-based.
In test [14] the test system is Mus musculus. Kind of test: Increase of neophobia in C3H/he mouse assessed as time spent in unfamiliar compartment at 1 to 10 mg/kg, po. Format: functional, organism-based.

In general, Emax refers to the maximal effect, on the per cent scale that the assay sets. In general, EC50 refers to the concentration at which the effect is half-maximal. For orientation: Ki means the dissociation constant of the complex between target and ligand, obtained from inhibition or displacement. Low readings indicate tighter binding, high ones weaker binding. `CC(=O)NCCc1coc2ccc3c(c12)CCCO3`: the outcome in [1], in test [2], in test [3] and in test [4] was Active. Besides, in [5], the Activity was determined as 30%. Also, the Emax in test [6] was determined as 68%; in [8], 98%. The EC50 in [7] was found to be 0.19 nM; in test [9] it was 0.8 nM. The Ki in test [10] is 0.31 nM; in test [11] it was 0.59 nM.
As to `CC(=O)N(C)CCc1coc2ccc3c(c12)CCCO3`, the EC50 in test [7] and in test [9] was > 10000 nM in each case. For the same compound, the Ki stood at 14 nM in test [10] and 13 nM in test [11].
Turning to `CC(=O)NCCc1c(-c2cccc(O)c2)oc2ccc3c(c12)CCCO3`, the Emax came out at 93% in [6] and 46% in test [8]. In addition, the EC50 stood at 0.21 nM in test [7] and 4.6 nM in test [9]. The Ki in test [10] is 0.87 nM; in test [11], 0.21 nM.
As for `CC(=O)NCCc1coc2cc(C(=O)c3ccccc3)c3c(c12)CCCO3`, the Ki was 44 nM in [10] and 40 nM in test [11].
As for `CC(=O)NCCc1coc2cc(C(=O)c3cccc(C(F)(F)F)c3)c3c(c12)CCCO3`, the Ki in test [10] is 34 nM; in test [11], 29 nM.
`COc1cccc(C(=O)c2cc3occ(CCNC(C)=O)c3c3c2OCCC3)c1`: the Emax amounted to 58% in test [6] and 56% in test [8]. In addition, the figures for the EC50 in test [7] and in test [9] were 149 nM and 455 nM, respectively. The results for the Ki in test [10] and in test [11] were 35 nM and 80 nM, respectively.
Regarding `COc1ccc(C(=O)c2cc3occ(CCNC(C)=O)c3c3c2OCCC3)cc1`, the Ki in [10] came out at 5370 nM; in test [11], 3860 nM.
For the compound `CCCNC(=O)NCCc1coc2ccc3c(c12)CCCO3`, the figures for the Ki in [10] and in [11] were 1.3 nM and 0.74 nM, respectively.
Take `CCCNC(=S)NCCc1coc2ccc3c(c12)CCCO3`: the Ki was 5.4 nM in [10] and 4.4 nM in [11].
As to `COc1ccccc1C(=O)c1cc2occ(CCNC(C)=O)c2c2c1OCCC2`, affinity in [10] was put at a Ki of 823 nM.
For `CCCCNC(=O)NCCc1coc2ccc3c(c12)CCCO3`, the Ki came to 50 nM in test [10] and 23 nM in [11].
`COc1cccc(C(=O)c2oc3ccc4c(c3c2CCNC(C)=O)CCCO4)c1`: the results for the Ki in test [10] and in test [11] were 130 nM and 0.83 nM, respectively.
Take `C=CC(=O)NCCc1coc2ccc3c(c12)CCCO3`: the Emax turned out to be 74% in test [6] and 80% in test [8]. Besides, the figures for the EC50 in [7] and in test [9] were 51 nM and 13 nM, respectively. Further, the Ki in test [10] turned out to be 0.11 nM; in test [11], 0.38 nM.
As to `COc1cccc(-c2oc3ccc4c(c3c2CCNC(C)=O)CCCO4)c1`, the Emax came out at 68% in [6] and 30% in test [8]. The EC50 in test [7] was 0.2 nM; in test [9], 1.8 nM. The Ki in test [10] worked out at 0.33 nM; in [11], 0.3 nM.
Take `CC(=O)NCCc1c(C(=O)c2cccc(C(F)(F)F)c2)oc2ccc3c(c12)CCCO3`: in [6], the Emax came out at 44%. Moreover, the results for the EC50 in test [7] and in test [9] were 16 nM and > 10000 nM, respectively. Moreover, the Ki in [10] stood at 326 nM; in test [11], 2.6 nM.
As to `CC(=O)NCCc1c(-c2cccc(CO)c2)oc2ccc3c(c12)CCCO3`, the Emax in [6] stood at 67%; in [8], 32%. Also, the EC50 in test [7] was 0.3 nM; in test [9], 8.5 nM. The Ki in [10] came out at 2.2 nM; in test [11], 0.67 nM.
With `COc1ccc(C(=O)c2oc3ccc4c(c3c2CCNC(C)=O)CCCO4)cc1`, the figures for the Ki in [10] and in test [11] were 105 nM and 2.7 nM, respectively.
Consider `S=C(NCCc1coc2ccc3c(c12)CCCO3)NC1CC1`, for which the Emax in [6] stood at 46%; in [8], 42%. Besides, the EC50 in test [7] stood at 38 nM; in test [9], 143 nM. Also, the Ki in [10] worked out at 5.6 nM; in test [11], 7.4 nM.
Consider `C=CCC(=O)NCCc1coc2ccc3c(c12)CCCO3`, for which the Emax in [6] is 57%; in [8] it was 68%. The EC50 came to 1.5 nM in test [7] and 2.5 nM in [9]. The Ki came to 0.07 nM in test [10] and 0.08 nM in [11].
Take `COc1ccc2occ(CCNC(C)=O)c2c1`: the Emax in test [6] was determined as 101%; in [8], 118%. Further, the figures for the EC50 in test [7] and in [9] were 0.7 nM and 5.5 nM, respectively. Moreover, the Ki in [10] is 0.16 nM.
For the compound `CCCC(=O)c1oc2ccc3c(c2c1CCNC(C)=O)CCCO3`, the Ki worked out at 0.97 nM in test [10] and 0.1 nM in [11].
In the case of `O=C(CI)NCCc1coc2ccc3c(c12)CCCO3`, the values for the Emax in test [6] and in [8] were 78% and 121%, respectively. The results for the EC50 in test [7] and in test [9] were 0.1 nM and 0.2 nM, respectively. Besides, the Ki in test [10] worked out at 0.07 nM; in [11], 0.08 nM.
For `COc1ccccc1C(=O)c1oc2ccc3c(c2c1CCNC(C)=O)CCCO3`, the Ki stood at 53 nM in test [10] and 13 nM in test [11].
With `C/C=C/C(=O)NCCc1coc2ccc3c(c12)CCCO3`, the Emax came to 65% in [6] and 92% in [8]. Moreover, the EC50 worked out at 14 nM in test [7] and 61 nM in test [9]. Moreover, the Ki is 1.3 nM in test [10] and 2.6 nM in [11].
Turning to `CCCCNC(=S)NCCc1coc2ccc3c(c12)CCCO3`, the Ki turned out to be 23 nM in test [10] and 46 nM in [11].
`CC(=O)NCCc1coc2cc(Cc3cccc(C(F)(F)F)c3)c3c(c12)CCCO3`: the Ki in test [10] was 9 nM; in test [11], 13 nM.
Take `CC(=O)NCCc1c(-c2ccccc2)oc2ccc3c(c12)CCCO3`: the Emax in test [6] was 104%; in test [8], 107%. The EC50 in [7] turned out to be 0.07 nM; in test [9], 0.12 nM. Moreover, the values for the Ki in test [10] and in test [11] were 0.04 nM and 0.14 nM, respectively.
In the case of `COc1ccc2[nH]cc(CCNC(C)=O)c2c1` [MELATONIN], the outcome in test [12], in test [13] and in [14] was Active. Further, the values for the EC50 in [7] and in [9] were 0.4 nM and 1.7 nM, respectively. This compound also displayed a Ki in [10] of 0.23 nM.
On to `C=Cc1oc2ccc3c(c2c1CCNC(C)=O)CCCO3`, for which the maximal effect (Emax) in test [6] came out at 120%; in test [8], 113%. Besides, the results for the EC50 in test [7] and in test [9] were 0.21 nM and 0.08 nM, respectively. Besides, the results for the Ki in [10] and in test [11] were 0.05 nM and 0.2 nM, respectively.
Regarding `C=CCc1oc2ccc3c(c2c1CCNC(C)=O)CCCO3`, the Emax amounted to 109% in test [6] and 104% in test [8]. The figures for the EC50 in test [7] and in [9] were 0.08 nM and 0.15 nM, respectively. Also, the Ki turned out to be 0.03 nM in test [10] and 0.12 nM in test [11].
